Laboratory results reported in ChEMBL document CHEMBL2390902, “Discovery of 1-(1,3,5-triazin-2-yl)piperidine-4-carboxamides as inhibitors of soluble epoxide hydrolase” (Bioorg Med Chem Lett, 2013).

Columns and labels:
[1] = molecular target: Vasoactive intestinal polypeptide receptor 1 (Homo sapiens) (UniProt P32241); test: Inhibition of human VPAC1 receptor at 1 uM relative to control
[2] = Plasma clearance in rat at 1 mg/kg, iv; type: ADME, organism-based; parameters: dose 1 mg/kg, route intravenous
[3] = molecular target: Neurotensin receptor type 1 (Homo sapiens) (UniProt P30989); test: Inhibition of human NTS1 receptor at 1 uM relative to control
[4] = molecular target: 5-hydroxytryptamine receptor 1A (Homo sapiens) (UniProt P08908); test: Inhibition of human 5-HT1A receptor at 1 uM relative to control
[5] = molecular target: Beta-1 adrenergic receptor (Homo sapiens) (UniProt P08588); test: Inhibition of human beta1 receptor at 1 uM relative to control
[6] = molecular target: Bifunctional epoxide hydrolase 2 (Rattus norvegicus, UniProt P80299)
[7] = molecular target: Cholecystokinin receptor type A (Homo sapiens) (UniProt P32238); test: Inhibition of human CCK1 receptor at 1 uM relative to control
Homo sapiens [8] = species: Homo sapiens; test: Inhibition of human sigma receptor at 1 uM relative to control
[9] = molecular target: Adenosine receptor A3 (Homo sapiens) (UniProt P0DMS8); test: Inhibition of human adenosine A3 receptor at 1 uM relative to control
[10] = molecular target: 5-hydroxytryptamine receptor 6 (Homo sapiens) (UniProt P50406); test: Inhibition of human 5-HT6 receptor at 1 uM relative to control
[11] = Cmax in rat at 20 mg/kg, po; type: ADME, organism-based; parameters: dose 20 mg/kg, route oral; conditions: in vivo
Rattus norvegicus [12] = test: Dose normalized AUC in rat at 2 mg/kg, iv; type: ADME, organism-based; parameters: dose 2 mg/kg, route intravenous; conditions: in vivo
Homo sapiens [13] = species: Homo sapiens; test: Inhibition of human delta2 opioid receptor at 1 uM relative to control
[14] = molecular target: Neuropeptide Y receptor type 2 (Homo sapiens) (UniProt P49146); test: Inhibition of human Y2 receptor at 1 uM relative to control
[15] = molecular target: Melanocortin receptor 4 (Homo sapiens) (UniProt P32245); test: Inhibition of human MC4 receptor at 1 uM relative to control
[16] = molecular target: T1, Bifunctional epoxide hydrolase 2 (Homo sapiens, UniProt P34913)
T1 sequence (P34913 whole entry): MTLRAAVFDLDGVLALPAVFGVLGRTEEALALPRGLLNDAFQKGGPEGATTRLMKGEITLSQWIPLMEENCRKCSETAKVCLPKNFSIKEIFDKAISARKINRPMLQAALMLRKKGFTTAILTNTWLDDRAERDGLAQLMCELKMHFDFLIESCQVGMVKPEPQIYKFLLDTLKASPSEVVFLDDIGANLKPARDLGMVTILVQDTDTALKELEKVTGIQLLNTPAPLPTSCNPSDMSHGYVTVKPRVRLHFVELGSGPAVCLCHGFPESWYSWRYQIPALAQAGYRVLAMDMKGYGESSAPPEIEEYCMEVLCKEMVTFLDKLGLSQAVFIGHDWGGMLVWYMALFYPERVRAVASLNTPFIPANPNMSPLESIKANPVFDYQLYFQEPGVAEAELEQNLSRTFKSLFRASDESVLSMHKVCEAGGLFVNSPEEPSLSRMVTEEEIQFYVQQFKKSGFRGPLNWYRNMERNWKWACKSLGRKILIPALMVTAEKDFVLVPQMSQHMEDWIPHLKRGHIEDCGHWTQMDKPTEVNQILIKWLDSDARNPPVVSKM
Description: Inhibition of human soluble epoxide hydrolase overexpressed in HEK293F cells using EET as substrate assessed as formation of DHET incubated for 30 mins prior to substrate addition measured after 60 mins by ELISA

[17] = molecular target: Sodium-dependent dopamine transporter (Homo sapiens) (UniProt Q01959); test: Inhibition of human dopamine transporter at 1 uM relative to control
[18] = molecular target: Muscarinic acetylcholine receptor M3 (Homo sapiens) (UniProt P20309); test: Inhibition of human M3 receptor at 1 uM relative to control
[19] = molecular target: Adrenergic receptor alpha-1 (Homo sapiens) (UniProt P35348+P25100+P35368); test: Inhibition of human alpha1 receptor at 1 uM relative to control
[20] = Cmax in rat at 2 mg/kg, po; type: ADME, organism-based; parameters: dose 2 mg/kg, route oral; conditions: in vivo
[21] = molecular target: Type-1 angiotensin II receptor (Homo sapiens) (UniProt P30556); test: Inhibition of human AT1 receptor at 1 uM relative to control
Rattus norvegicus [22] = test: Free maximum concentration of drug in rat at 20 mg/kg, po; type: ADME, organism-based; parameters: dose 20 mg/kg, route oral; conditions: in vivo
[23] = molecular target: Muscarinic acetylcholine receptor M1 (Homo sapiens) (UniProt P11229); test: Inhibition of human M1 receptor at 1 uM relative to control
[24] = molecular target: Adrenergic receptor alpha-2 (Homo sapiens) (UniProt P08913+P18825+P18089); test: Inhibition of human alpha2 receptor at 1 uM relative to control
[25] = molecular target: D(2) dopamine receptor (Homo sapiens) (UniProt P14416); test: Inhibition of human dopamine D2S receptor at 1 uM relative to control
[26] = molecular target: Muscarinic acetylcholine receptor M4 (Homo sapiens) (UniProt P08173); test: Inhibition of human M4 receptor at 1 uM relative to control

Chain of D(2) dopamine receptor (Homo sapiens) (P14416 whole entry): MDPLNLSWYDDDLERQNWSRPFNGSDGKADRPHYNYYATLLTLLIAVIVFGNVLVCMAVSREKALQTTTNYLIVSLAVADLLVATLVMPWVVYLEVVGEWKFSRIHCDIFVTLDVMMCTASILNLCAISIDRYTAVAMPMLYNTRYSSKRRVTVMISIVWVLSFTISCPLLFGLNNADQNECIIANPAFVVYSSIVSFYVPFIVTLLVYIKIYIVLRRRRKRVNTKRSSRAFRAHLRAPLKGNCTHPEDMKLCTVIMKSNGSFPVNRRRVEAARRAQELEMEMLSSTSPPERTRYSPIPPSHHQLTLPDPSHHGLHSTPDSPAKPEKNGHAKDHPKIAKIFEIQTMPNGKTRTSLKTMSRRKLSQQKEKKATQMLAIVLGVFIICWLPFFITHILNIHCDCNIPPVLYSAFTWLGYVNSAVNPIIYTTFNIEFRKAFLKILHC
Chain of Adenosine receptor A3 (Homo sapiens) (P0DMS8 whole entry): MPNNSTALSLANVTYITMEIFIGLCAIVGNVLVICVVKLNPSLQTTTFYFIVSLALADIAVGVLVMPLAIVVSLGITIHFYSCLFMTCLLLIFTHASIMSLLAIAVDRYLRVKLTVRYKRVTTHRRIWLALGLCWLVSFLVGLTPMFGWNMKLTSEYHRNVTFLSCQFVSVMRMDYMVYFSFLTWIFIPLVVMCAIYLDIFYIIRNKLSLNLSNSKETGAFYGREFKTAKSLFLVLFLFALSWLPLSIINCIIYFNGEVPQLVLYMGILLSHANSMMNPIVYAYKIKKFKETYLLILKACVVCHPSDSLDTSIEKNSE
Chain of 5-hydroxytryptamine receptor 6 (Homo sapiens) (P50406 whole entry): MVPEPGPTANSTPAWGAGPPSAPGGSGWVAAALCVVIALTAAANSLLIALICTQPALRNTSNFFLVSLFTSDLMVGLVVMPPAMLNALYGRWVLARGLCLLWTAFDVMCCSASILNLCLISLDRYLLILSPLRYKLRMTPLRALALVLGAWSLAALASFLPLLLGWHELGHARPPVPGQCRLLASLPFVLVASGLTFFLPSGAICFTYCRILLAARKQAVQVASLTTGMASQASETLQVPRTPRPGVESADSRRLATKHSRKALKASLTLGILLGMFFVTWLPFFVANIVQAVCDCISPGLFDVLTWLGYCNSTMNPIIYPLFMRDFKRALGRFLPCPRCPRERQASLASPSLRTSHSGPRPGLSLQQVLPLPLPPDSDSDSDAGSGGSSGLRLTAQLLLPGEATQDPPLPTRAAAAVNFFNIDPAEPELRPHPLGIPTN
Chain of Bifunctional epoxide hydrolase 2 (Rattus norvegicus, UniProt P80299) (P80299 whole entry): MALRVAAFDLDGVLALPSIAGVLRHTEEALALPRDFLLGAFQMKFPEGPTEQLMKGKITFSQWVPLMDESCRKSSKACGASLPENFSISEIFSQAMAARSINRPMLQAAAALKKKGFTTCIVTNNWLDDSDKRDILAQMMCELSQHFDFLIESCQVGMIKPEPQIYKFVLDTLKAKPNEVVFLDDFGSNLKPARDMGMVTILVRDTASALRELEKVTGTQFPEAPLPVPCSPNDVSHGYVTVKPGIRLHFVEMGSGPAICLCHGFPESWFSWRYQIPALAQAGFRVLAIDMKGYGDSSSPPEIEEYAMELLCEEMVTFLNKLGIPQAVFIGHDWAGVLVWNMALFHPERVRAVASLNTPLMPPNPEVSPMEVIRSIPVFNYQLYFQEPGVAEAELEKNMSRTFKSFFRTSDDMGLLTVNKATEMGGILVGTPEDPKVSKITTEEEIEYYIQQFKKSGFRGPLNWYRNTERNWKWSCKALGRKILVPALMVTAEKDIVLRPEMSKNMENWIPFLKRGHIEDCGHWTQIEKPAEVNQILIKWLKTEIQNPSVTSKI
Chain of Beta-1 adrenergic receptor (Homo sapiens) (P08588 whole entry, looked up): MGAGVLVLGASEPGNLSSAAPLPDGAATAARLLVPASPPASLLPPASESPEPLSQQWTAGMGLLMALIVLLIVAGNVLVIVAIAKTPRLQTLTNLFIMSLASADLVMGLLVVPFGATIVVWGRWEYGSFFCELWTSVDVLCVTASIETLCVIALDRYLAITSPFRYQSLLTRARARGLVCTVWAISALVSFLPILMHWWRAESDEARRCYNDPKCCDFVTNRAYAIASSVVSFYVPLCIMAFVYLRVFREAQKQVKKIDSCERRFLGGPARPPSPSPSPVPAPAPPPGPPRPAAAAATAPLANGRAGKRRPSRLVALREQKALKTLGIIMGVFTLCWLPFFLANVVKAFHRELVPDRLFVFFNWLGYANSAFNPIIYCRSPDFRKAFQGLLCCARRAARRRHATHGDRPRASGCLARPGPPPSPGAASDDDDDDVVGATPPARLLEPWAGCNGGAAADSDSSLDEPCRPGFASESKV
Chain of Muscarinic acetylcholine receptor M3 (Homo sapiens) (P20309 whole entry, looked up): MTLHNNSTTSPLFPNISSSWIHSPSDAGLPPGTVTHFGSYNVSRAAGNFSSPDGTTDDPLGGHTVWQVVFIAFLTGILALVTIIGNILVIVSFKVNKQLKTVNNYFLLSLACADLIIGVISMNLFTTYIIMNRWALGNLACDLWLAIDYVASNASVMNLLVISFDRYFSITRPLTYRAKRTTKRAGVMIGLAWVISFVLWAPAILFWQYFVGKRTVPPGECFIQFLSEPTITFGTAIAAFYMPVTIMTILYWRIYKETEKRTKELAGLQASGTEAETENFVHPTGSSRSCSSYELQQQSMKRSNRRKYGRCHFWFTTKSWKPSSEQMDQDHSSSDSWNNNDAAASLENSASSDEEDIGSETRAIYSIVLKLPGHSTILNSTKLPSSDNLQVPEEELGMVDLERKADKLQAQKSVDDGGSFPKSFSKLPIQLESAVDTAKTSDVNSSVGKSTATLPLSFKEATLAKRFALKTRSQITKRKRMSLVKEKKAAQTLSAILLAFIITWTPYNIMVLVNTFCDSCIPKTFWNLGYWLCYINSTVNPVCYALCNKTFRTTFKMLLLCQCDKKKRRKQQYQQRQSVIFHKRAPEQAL
Chain of Type-1 angiotensin II receptor (Homo sapiens) (P30556 whole entry): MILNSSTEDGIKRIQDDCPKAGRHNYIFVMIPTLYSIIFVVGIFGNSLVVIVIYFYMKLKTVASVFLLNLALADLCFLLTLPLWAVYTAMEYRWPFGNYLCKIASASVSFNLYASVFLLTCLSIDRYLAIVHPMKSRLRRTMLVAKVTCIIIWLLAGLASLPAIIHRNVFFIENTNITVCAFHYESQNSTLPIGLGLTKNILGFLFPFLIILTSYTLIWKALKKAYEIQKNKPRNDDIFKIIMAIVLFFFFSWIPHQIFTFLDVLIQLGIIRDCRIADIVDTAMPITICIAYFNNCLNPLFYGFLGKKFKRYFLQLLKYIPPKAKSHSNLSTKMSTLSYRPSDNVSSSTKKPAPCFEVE
Chain of Vasoactive intestinal polypeptide receptor 1 (Homo sapiens) (P32241 whole entry): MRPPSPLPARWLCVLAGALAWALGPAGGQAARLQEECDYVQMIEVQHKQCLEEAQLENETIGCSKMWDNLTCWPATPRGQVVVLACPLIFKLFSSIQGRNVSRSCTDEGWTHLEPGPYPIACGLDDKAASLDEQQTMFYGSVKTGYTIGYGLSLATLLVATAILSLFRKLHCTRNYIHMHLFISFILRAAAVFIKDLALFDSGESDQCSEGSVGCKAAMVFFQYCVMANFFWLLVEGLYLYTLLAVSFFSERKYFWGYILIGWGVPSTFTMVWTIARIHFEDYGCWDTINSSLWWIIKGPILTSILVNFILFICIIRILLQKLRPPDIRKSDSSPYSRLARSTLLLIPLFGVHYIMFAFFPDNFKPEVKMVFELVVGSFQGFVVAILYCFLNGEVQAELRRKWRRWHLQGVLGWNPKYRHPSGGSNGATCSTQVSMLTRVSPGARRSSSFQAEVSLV
Chain of Sodium-dependent dopamine transporter (Homo sapiens) (Q01959 whole entry): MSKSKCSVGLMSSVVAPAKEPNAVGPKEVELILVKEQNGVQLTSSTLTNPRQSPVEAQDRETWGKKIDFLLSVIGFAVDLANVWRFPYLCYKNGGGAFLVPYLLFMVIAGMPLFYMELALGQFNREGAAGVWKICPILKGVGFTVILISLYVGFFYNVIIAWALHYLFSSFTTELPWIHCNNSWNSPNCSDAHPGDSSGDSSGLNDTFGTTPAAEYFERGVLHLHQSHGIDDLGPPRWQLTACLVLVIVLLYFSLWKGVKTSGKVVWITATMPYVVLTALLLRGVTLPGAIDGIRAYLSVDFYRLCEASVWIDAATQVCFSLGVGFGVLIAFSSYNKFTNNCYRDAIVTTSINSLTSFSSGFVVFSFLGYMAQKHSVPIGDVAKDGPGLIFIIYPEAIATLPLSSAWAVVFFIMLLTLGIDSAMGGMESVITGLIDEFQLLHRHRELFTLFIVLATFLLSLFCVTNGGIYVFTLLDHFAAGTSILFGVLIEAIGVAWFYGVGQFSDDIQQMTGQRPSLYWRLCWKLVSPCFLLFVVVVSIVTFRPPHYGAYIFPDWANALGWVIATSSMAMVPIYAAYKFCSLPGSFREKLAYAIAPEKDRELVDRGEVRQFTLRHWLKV
Chain of Cholecystokinin receptor type A (Homo sapiens) (P32238 whole entry): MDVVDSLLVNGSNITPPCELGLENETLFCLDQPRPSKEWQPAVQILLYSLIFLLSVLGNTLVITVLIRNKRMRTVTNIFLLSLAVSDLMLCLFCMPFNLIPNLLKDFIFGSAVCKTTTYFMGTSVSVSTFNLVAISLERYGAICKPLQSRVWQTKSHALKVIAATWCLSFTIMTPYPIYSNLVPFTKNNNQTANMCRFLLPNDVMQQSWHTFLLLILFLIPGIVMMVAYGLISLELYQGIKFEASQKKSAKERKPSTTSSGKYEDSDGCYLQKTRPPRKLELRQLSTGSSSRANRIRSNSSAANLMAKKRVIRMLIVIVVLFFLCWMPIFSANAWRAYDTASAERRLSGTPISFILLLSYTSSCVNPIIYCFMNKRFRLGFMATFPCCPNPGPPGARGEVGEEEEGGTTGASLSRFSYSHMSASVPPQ

For `CNc1nc(C)nc(N2CCC(C(=O)NCc3ccc(Br)cc3OC(F)(F)F)CC2)n1`, the inhibition [1] was < 50%, the clearance [2] was 12 mL/min/kg and the inhibition [3] was < 50%. For the same molecule, the inhibition [4] was < 50%, the inhibition [5] was < 50% and the IC50 [6] was 2 nM. For the same molecule, the inhibition [7] was < 50%, the inhibition (Homo sapiens [8]) was < 50% and the inhibition [9] was < 50%. The inhibition [10] was < 50%, the Cmax [11] was 1490 nM and the AUC/dose (Rattus norvegicus [12]) was 1.3 kg·h/L. For the same molecule, the inhibition (Homo sapiens [13]) was < 50%, the inhibition [14] was < 50% and the inhibition [15] was < 50%. For the same molecule, the IC50 [16] was 3 nM, the inhibition [17] was < 50% and the inhibition [18] was < 50%. For the same molecule, the inhibition [19] was < 50%, the Cmax [20] was 223 nM and the inhibition [21] was < 50%. The fCmax (Rattus norvegicus [22]) was 24 nM, the inhibition [23] was < 50% and the inhibition [24] was < 50%. The inhibition [25] was < 50% and the inhibition [26] was < 50%.
